{
  "source": "patent US20080081798A1",
  "about": "“Pharmaceutical combinations for the treatment of head-aches and migraine attacks as well as blisters and packs that contain them” (priority 2006, published 2008)",
  "test_system": "patients suffering from migraine (moderate or severe migraine attacks)",
  "assay": "Double-blind, randomized, cross-over, placebo-controlled study of rizatriptan and trimebutine for treating migraine",
  "assay_type": "in vivo, human",
  "procedure": "Thirty-two patients (24 women and 8 men, aged between 21 and 61, average=39.7) suffering from migraine according to the criteria of the International Headache Association were randomized to treat 2 consecutive moderate or severe attacks with a tablet of 10 mg of rizatriptan and a capsule of 200 mg of trimebutine and 2 attacks with the same amount of triptan and placebo, and vice-versa. The severity of the attacks, as well as the presence of nauseas and photophobia at the moment of ingesting the drug after 1, 2 and 4 hours were collected.",
  "data": [
    {"smiles": "CN(C)CCc1c[nH]c2ccc(Cn3cncn3)cc12", "note": "[rizatriptan]", "values": [
      {"measurement": "without pain after 1 hour (share of the 38 attacks without pain)", "setting": "10 mg rizatriptan tablet with 200 mg trimebutine capsule or placebo, 1 hour, of the 38 attacks, p<0.001", "result": 21.1, "unit": "%"},
      {"measurement": "without pain after 2 hours (share of the 67 attacks)", "setting": "10 mg rizatriptan tablet with 200 mg trimebutine capsule or placebo, 2 hours, of the 67 attacks, p<0.0001", "result": 29.9, "unit": "%"},
      {"measurement": "adverse events present (number of attacks treated)", "setting": "64 attacks treated with each drug regimen", "result": 18, "unit": "attacks"},
      {"measurement": "free from nausea after 1 hour", "setting": "1 hour, p<0.001", "result": 23.7, "unit": "%"},
      {"measurement": "free from photophobia after 1 hour", "setting": "1 hour, p<0.001", "result": 26.7, "unit": "%"}
    ]}
  ]
}
